Experimental findings from US20210269434A1, “TRICYCLIC COMPOUNDS AS INHIBITORS OF KRAS” (Incyte Corporation, priority 2020, published 2021) are described below.

Structures are written as SMILES.

One assay addresses KRAS G12C (Homo sapiens, UniProt P01116, G12C). The assay can be described thus: GDP-GTP exchange assay (KRAS_G12C exchange). The class given is biochemical. To be noted: bodipy-GDP loaded KRAS G12C 2.5 nM, SOS1 150 nM, GppNHp; 2 hours pre-incubation, 2 hours reaction; read-out: G12C_exchange. The essentials:
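Fluorescence exchange of bodipy-GDP for GppNHp, SOS1-driven, read at 485/520 nm; IC50 from four-parameter variable-slope fit. Both mutants used 2.5 nM final labelled protein and a 2 h compound pre-incubation. G12C reaction had 500 uM GppNHp and 150 nM SOS1 for 2 h; G12D ran 4 h.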

Assay [1] concerns MIA PaCa-2 (KRAS G12C) cells. The assay can be described thus: Cellular pERK HTRF assay (KRAS_G12C pERK). The class given is cell-based, human. To be noted: Homo sapiens, MIA PaCa-2, 4 hours incubation, read-out: G12C_pERK. Summed up: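 Phospho-ERK1/2 HTRF readout (665 and 620 nm) in lysed MIA PaCa-2 cells, antibodies incubated overnight at room temperature. Cells seeded the day before and treated with G12C compounds for 4 h at 37 °C; IC50 fitted to percent inhibition against log inhibitor concentration.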

Chain of KRAS G12C (P01116 1-188 isoform P01116-2 G12C): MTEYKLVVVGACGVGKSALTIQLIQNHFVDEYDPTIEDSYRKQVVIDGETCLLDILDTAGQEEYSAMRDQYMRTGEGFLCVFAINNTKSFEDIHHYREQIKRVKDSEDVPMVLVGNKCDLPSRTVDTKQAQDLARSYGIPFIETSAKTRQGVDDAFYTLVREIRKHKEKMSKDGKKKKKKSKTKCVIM

On to `C=CC(=O)N1CC[C@H](n2cnc3c(-n4ccnc4C)nc4c(F)c(-c5ccc(F)cc5)c(Cl)cc4c32)C[C@H]1CC#N` [Example 123, 2-((2S,4S)-1-acryloyl-4-(8-chloro-6-fluoro-7-(4-fluorophenyl)-4-(2-methyl-1H-imidazol-1-yl)-1H-imidazo[4,5-c]quinolin-1-yl)piperidin-2-yl)acetonitrile], for which the IC50 (on KRAS G12C; in assay [1]) was at most 100 nM throughout.
Take `Cc1nccn1-c1nc2c(F)c(-c3ccc(F)cc3)c(Cl)cc2c2c1ncn2[C@H]1CCN(C(=O)/C=C/CN(C)C)[C@H](CC#N)C1` [Example 124, 2-((2S,4S)-4-(8-chloro-6-fluoro-7-(4-fluorophenyl)-4-(2-methyl-1H-imidazol-1-yl)-1H-imidazo[4,5-c]quinolin-1-yl)-1-((E)-4-(dimethylamino)-but-2-enoyl)piperidin-2-yl)acetonitrile]: the IC50 (on KRAS G12C; in assay [1]) was at most 100 nM each time.
As to `Cc1nccn1-c1nc2c(F)c(-c3ccc(F)cc3)c(Cl)cc2c2c1ncn2[C@H]1CCN(C(=O)/C=C/CF)[C@H](CC#N)C1` [Example 125, 2-((2S,4S)-4-(8-chloro-6-fluoro-7-(4-fluorophenyl)-4-(2-methyl-1H-imidazol-1-yl)-1H-imidazo[4,5-c]quinolin-1-yl)-1-((E)-4-fluorobut-2-enoyl)piperidin-2-yl)acetonitrile], the IC50 (on KRAS G12C; in assay [1]) was at most 100 nM in each case.
Turning to `C=CC(=O)N1CC[C@H](n2nnc3c(N4CC(C)(N(C)C)C4)nc4c(F)c(-c5ccc(F)cc5)c(Cl)cc4c32)C[C@H]1CC#N` [Example 126, 2-((2S,4S)-1-acryloyl-4-(8-chloro-4-(3-(dimethylamino)-3-methylazetidin-1-yl)-6-fluoro-7-(4-fluorophenyl)-1H-[1,2,3]triazolo[4,5-c]quinolin-1-yl)piperidin-2-yl)acetonitrile], the IC50 (at KRAS G12C; in assay [1]) was at most 100 nM throughout.
As for `C=CC(=O)N1CC[C@H](n2nnc3c(N4CC(C)(N(C)C)C4)nc4c(F)c(-c5ccc(F)cc5)c(C)cc4c32)C[C@H]1CC#N` [Example 127, 2-((2S,4S)-1-acryloyl-4-(4-(3-(dimethylamino)-3-methylazetidin-1-yl)-6-fluoro-7-(4-fluorophenyl)-8-methyl-1H-[1,2,3]triazolo[4,5-c]quinolin-1-yl)piperidin-2-yl)acetonitrile], the IC50 (at KRAS G12C; in assay [1]) was at most 100 nM in each case.
Regarding `C=CC(=O)N1CC[C@H](n2nnc3c(O[C@@H](C)CN(C)C)nc4c(F)c(-c5ccc(F)cc5)c(Cl)cc4c32)C[C@H]1CC#N` [Example 128, 2-((2S,4S)-1-acryloyl-4-(8-chloro-4-(((S)-1-(dimethylamino)propan-2-yl)oxy)-6-fluoro-7-(4-fluorophenyl)-1H-[1,2,3]triazolo[4,5-c]quinolin-1-yl)piperidin-2-yl)acetonitrile], the IC50 (at KRAS G12C; in assay [1]) was at most 100 nM throughout.
Turning to `CC#CC(=O)N1CC[C@H](n2nnc3c(O[C@@H](C)CN(C)C)nc4c(F)c(-c5ccc(F)cc5)c(Cl)cc4c32)C[C@H]1CC#N` [Example 129, 2-((2S,4S)-1-(but-2-ynoyl)-4-(8-chloro-4-(((S)-1-(dimethylamino)propan-2-yl)oxy)-6-fluoro-7-(4-fluorophenyl)-1H-[1,2,3]triazolo[4,5-c]quinolin-1-yl)piperidin-2-yl)acetonitrile], the IC50 (on KRAS G12C; in assay [1]) was at most 100 nM in each case.
As for `C[C@@H](CN(C)C)Oc1nc2c(F)c(-c3ccc(F)cc3)c(Cl)cc2c2c1nnn2[C@H]1CCN(C(=O)/C=C/CF)[C@H](CC#N)C1` [Example 130, 2-((2S,4S)-4-(8-chloro-4-(((S)-1-(dimethylamino)propan-2-yl)oxy)-6-fluoro-7-(4-fluorophenyl)-1H-[1,2,3]triazolo[4,5-c]quinolin-1-yl)-1-((E)-4-fluorobut-2-enoyl)piperidin-2-yl)acetonitrile], the IC50 (on KRAS G12C; in assay [1]) was at most 100 nM throughout.
For `C=CC(=O)N1CC[C@H](n2nnc3c(OC[C@@H]4CCCN4C)nc4c(F)c(-c5ccc(F)cc5)c(Cl)cc4c32)C[C@H]1CC#N` [Example 131, 2-((2S,4S)-1-acryloyl-4-(8-chloro-6-fluoro-7-(4-fluorophenyl)-4-(((S)-1-methylpyrrolidin-2-yl)methoxy)-1H-[1,2,3]triazolo[4,5-c]quinolin-1-yl)piperidin-2-yl)acetonitrile], the IC50 (at KRAS G12C; in assay [1]) was at most 100 nM each time.
Consider `C=CC(=O)N1CC[C@H](n2nnc3c(O[C@@H](C)CN(C)C)nc4c(F)c(-c5ccc(F)cc5)c(C)cc4c32)C[C@H]1CC#N` [Example 132, 2-((2S,4S)-1-acryloyl-4-(4-(((S)-1-(dimethylamino)propan-2-yl)oxy)-6-fluoro-7-(4-fluorophenyl)-8-methyl-1H-[1,2,3]triazolo[4,5-c]quinolin-1-yl)piperidin-2-yl)acetonitrile], for which the IC50 (on KRAS G12C; in assay [1]) was at most 100 nM throughout.
With `CC#CC(=O)N1CC[C@H](n2nnc3c(O[C@@H](C)CN(C)C)nc4c(F)c(-c5ccc(F)cc5)c(C)cc4c32)C[C@H]1CC#N` [Example 133, 2-((2S,4S)-1-(but-2-ynoyl)-4-(4-(((S)-1-(dimethylamino)propan-2-yl)oxy)-6-fluoro-7-(4-fluorophenyl)-8-methyl-1H-[1,2,3]triazolo[4,5-c]quinolin-1-yl)piperidin-2-yl)acetonitrile], the IC50 (on KRAS G12C; in assay [1]) was at most 100 nM in each case.
Turning to `Cc1cc2c(nc(O[C@@H](C)CN(C)C)c3nnn([C@H]4CCN(C(=O)/C=C/CF)[C@H](CC#N)C4)c32)c(F)c1-c1ccc(F)cc1` [Example 134, 2-((2S,4S)-4-(4-(((S)-1-(dimethylamino)propan-2-yl)oxy)-6-fluoro-7-(4-fluorophenyl)-8-methyl-1H-[1,2,3]triazolo[4,5-c]quinolin-1-yl)-1-((E)-4-fluorobut-2-enoyl)piperidin-2-yl)acetonitrile], the IC50 (at KRAS G12C; in assay [1]) was at most 100 nM throughout.
For `C=CC(=O)N1CC[C@H](n2nnc3c(OC[C@@H]4CCCN4C)nc4c(F)c(-c5ccc(F)cc5)c(C)cc4c32)C[C@H]1CC#N` [Example 135, 2-((2S,4S)-1-acryloyl-4-(6-fluoro-7-(4-fluorophenyl)-8-methyl-4-(((S)-1-methylpyrrolidin-2-yl)methoxy)-1H-[1,2,3]triazolo[4,5-c]quinolin-1-yl)piperidin-2-yl)acetonitrile], the IC50 (on KRAS G12C; in assay [1]) was at most 100 nM in each case.
Take `Cc1cc2c(nc(OC[C@@H]3CCCN3C)c3nnn([C@H]4CCN(C(=O)/C=C/CF)[C@H](CC#N)C4)c32)c(F)c1-c1ccc(F)cc1` [Example 136, 2-((2S,4S)-4-(6-fluoro-7-(4-fluorophenyl)-8-methyl-4-(((S)-1-methylpyrrolidin-2-yl)methoxy)-1H-[1,2,3]triazolo[4,5-c]quinolin-1-yl)-1-((E)-4-fluorobut-2-enoyl)piperidin-2-yl)acetonitrile]: the IC50 (at KRAS G12C; in assay [1]) was at most 100 nM each time.
`C=CC(=O)N1CC[C@H](n2nnc3c(OC[C@@H]4CCCN4C)nc4c(F)c(-c5cccc(C)c5C)c(C)cc4c32)C[C@H]1CC#N` [Example 137, 2-((2S,4S)-1-acryloyl-4-(7-(2,3-dimethylphenyl)-6-fluoro-8-methyl-4-(((S)-1-methylpyrrolidin-2-yl)methoxy)-1H-[1,2,3]triazolo[4,5-c]quinolin-1-yl)piperidin-2-yl)acetonitrile]: the IC50 (on KRAS G12C; in assay [1]) was at most 100 nM throughout.
Take `Cc1cccc(-c2c(C)cc3c(nc(OC[C@@H]4CCCN4C)c4nnn([C@H]5CCN(C(=O)/C=C/CF)[C@H](CC#N)C5)c43)c2F)c1C` [Example 138, 2-((2S,4S)-4-(7-(2,3-dimethylphenyl)-6-fluoro-8-methyl-4-(((S)-1-methylpyrrolidin-2-yl)methoxy)-1H-[1,2,3]triazolo[4,5-c]quinolin-1-yl)-1-((E)-4-fluorobut-2-enoyl)piperidin-2-yl)acetonitrile]: the IC50 (at KRAS G12C; in assay [1]) was at most 100 nM throughout.
On to `CC#CC(=O)N1CC[C@H](n2nnc3c(OC[C@@H]4CCCN4C)nc4c(F)c(-c5cccc(C)c5C)c(C)cc4c32)C[C@H]1CC#N` [Example 139, 2-((2S,4S)-1-(but-2-ynoyl)-4-(7-(2,3-dimethylphenyl)-6-fluoro-8-methyl-4-(((S)-1-methylpyrrolidin-2-yl)methoxy)-1H-[1,2,3]triazolo[4,5-c]quinolin-1-yl)piperidin-2-yl)acetonitrile], for which the IC50 (at KRAS G12C; in assay [1]) was at most 100 nM in each case.
With `COC/C=C/C(=O)N1CC[C@H](n2nnc3c(OC[C@@H]4CCCN4C)nc4c(F)c(-c5cccc(C)c5C)c(C)cc4c32)C[C@H]1CC#N` [Example 140, 2-((2S,4S)-4-(7-(2,3-dimethylphenyl)-6-fluoro-8-methyl-4-(((S)-1-methylpyrrolidin-2-yl)methoxy)-1H-[1,2,3]triazolo[4,5-c]quinolin-1-yl)-1-((E)-4-methoxybut-2-enoyl)piperidin-2-yl)acetonitrile], the IC50 (on KRAS G12C; in assay [1]) was at most 100 nM each time.
As to `Cc1cccc(-c2c(C)cc3c(nc(OC[C@@H]4CCCN4C)c4nnn([C@H]5CCN(C(=O)/C=C/C(F)F)[C@H](CC#N)C5)c43)c2F)c1C` [Example 141, 2-((2S,4S)-1-((E)-4,4-difluorobut-2-enoyl)-4-(7-(2,3-dimethylphenyl)-6-fluoro-8-methyl-4-(((S)-1-methylpyrrolidin-2-yl)methoxy)-1H-[1,2,3]triazolo[4,5-c]quinolin-1-yl)piperidin-2-yl)acetonitrile], the IC50 (at KRAS G12C; in assay [1]) was at most 100 nM throughout.
